What all share (assay): KINOMEscan competition binding
For one test, the target named is T1, ITK (Homo sapiens, UniProt Q08881).
T1 sequence (Q08881 1-620): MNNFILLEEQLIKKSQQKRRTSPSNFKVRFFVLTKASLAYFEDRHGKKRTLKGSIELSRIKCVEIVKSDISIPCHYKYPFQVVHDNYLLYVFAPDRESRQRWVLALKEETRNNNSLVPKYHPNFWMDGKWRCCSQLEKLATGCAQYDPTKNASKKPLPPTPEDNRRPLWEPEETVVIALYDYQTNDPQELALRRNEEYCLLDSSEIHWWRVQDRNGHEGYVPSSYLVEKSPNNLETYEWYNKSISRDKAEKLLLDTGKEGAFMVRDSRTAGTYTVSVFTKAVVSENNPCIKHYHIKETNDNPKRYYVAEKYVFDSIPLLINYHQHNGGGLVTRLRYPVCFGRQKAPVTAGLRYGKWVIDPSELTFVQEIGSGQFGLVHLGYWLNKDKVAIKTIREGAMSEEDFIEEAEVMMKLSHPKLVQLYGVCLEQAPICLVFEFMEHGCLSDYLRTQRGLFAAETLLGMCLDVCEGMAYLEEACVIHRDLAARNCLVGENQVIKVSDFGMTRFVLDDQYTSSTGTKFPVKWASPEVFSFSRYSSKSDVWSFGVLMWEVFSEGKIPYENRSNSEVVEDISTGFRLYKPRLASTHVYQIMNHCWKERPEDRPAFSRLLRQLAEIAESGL
To be noted: read-out: %Inh ITK.

The target in another test is T2, CSF1R-autoinhibited (Homo sapiens, UniProt P07333).
T2 sequence (P07333 539-972 limits assumed): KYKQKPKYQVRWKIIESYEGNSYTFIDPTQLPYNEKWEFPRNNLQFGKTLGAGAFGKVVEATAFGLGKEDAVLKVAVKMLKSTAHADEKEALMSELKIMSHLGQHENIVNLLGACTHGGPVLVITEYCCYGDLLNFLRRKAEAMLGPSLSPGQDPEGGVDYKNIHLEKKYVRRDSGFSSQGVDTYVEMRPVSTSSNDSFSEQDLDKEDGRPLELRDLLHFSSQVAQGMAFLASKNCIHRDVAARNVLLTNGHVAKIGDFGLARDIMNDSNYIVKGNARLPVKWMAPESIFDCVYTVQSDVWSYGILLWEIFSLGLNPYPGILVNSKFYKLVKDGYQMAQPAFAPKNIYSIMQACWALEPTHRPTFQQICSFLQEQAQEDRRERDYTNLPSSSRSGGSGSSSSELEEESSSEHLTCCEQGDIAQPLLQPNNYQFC
The note with it: read-out: %Inh CSF1R-autoinhibited.

The target of another test is T3, ADCK4 (Homo sapiens, UniProt Q96D53).
T3 sequence (Q96D53 1-544): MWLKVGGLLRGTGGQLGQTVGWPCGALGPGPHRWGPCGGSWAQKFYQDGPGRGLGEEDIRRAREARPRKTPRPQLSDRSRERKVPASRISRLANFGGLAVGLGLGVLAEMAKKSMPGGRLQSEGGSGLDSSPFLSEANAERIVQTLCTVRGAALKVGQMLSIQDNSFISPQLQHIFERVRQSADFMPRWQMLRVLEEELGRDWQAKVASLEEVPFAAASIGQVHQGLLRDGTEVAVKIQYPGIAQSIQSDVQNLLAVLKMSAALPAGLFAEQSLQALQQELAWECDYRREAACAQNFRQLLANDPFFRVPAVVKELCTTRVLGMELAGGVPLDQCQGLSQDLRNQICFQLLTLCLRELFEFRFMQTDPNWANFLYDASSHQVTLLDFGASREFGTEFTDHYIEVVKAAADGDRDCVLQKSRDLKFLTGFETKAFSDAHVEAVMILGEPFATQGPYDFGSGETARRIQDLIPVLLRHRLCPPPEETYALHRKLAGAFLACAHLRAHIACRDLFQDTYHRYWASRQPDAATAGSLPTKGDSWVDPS
To be noted: read-out: %Inh ADCK4.

The target of a further test is LTK (Homo sapiens, UniProt P29376). The note with it: read-out: %Inh LTK.
For the next test, the target named is DYRK1A (Homo sapiens, UniProt Q13627). To be noted: read-out: %Inh DYRK1A.
A further test deals with ERK1 (Homo sapiens, UniProt P27361). To be noted: read-out: %Inh ERK1.
Another test deals with T4, CASK (Homo sapiens, UniProt O14936).
T4 sequence (O14936 1-926): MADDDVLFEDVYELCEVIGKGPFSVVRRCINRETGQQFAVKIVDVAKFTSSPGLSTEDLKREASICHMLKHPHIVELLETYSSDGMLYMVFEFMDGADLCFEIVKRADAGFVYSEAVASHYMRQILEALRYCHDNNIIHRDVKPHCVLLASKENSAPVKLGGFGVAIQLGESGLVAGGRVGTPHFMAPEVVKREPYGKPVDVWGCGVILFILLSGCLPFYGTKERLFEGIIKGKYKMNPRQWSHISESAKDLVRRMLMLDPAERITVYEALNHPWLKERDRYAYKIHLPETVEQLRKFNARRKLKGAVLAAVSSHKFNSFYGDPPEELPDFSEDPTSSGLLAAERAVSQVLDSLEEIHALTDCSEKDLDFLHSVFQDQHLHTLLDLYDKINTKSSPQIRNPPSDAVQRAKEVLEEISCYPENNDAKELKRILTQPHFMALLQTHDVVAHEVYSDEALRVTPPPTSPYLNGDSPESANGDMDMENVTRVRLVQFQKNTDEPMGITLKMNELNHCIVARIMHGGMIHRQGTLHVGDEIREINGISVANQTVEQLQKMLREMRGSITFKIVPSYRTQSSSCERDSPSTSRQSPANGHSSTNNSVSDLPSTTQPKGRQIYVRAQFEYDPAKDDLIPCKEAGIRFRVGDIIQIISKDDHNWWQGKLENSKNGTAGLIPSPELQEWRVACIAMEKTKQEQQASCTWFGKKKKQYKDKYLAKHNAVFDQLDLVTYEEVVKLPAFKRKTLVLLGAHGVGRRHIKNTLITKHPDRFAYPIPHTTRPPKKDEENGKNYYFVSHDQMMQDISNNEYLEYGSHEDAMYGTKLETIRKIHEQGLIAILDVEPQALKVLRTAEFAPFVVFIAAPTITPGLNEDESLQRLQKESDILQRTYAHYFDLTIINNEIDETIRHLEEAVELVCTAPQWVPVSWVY
To be noted: read-out: %Inh CASK.

Chain of ERK1 (P27361 whole entry): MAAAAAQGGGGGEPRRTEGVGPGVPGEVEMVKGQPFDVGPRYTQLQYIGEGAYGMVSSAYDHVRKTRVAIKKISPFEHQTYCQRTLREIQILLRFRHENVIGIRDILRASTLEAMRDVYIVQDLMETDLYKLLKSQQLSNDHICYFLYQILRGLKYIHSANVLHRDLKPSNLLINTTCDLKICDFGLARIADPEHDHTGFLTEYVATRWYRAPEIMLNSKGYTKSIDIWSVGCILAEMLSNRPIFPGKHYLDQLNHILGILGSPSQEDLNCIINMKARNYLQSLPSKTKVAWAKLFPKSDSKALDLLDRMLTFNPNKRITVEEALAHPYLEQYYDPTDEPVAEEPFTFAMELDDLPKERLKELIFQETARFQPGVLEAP
Chain of LTK (P29376 17-864): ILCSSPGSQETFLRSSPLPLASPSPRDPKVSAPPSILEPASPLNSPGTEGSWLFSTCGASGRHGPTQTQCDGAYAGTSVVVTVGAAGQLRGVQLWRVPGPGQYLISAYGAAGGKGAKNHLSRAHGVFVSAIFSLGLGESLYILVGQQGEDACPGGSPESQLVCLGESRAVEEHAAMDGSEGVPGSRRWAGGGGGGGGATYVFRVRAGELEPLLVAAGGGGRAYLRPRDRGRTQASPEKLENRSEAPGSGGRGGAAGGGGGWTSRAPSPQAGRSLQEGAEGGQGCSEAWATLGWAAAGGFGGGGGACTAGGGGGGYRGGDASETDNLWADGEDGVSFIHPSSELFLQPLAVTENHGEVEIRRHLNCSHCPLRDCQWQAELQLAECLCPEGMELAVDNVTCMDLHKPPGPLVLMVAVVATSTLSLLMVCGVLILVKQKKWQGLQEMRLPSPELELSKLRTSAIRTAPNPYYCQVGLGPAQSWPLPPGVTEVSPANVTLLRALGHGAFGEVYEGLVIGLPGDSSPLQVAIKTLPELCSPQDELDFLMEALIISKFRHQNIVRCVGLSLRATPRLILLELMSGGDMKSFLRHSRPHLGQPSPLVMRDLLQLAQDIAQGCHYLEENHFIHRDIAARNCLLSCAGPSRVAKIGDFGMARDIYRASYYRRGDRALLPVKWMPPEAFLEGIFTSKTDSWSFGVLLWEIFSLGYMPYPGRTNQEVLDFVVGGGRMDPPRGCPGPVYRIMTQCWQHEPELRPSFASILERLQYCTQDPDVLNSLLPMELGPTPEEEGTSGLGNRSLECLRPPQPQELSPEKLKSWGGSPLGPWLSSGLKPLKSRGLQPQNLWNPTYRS

As for `COc1cccc(OC)c1C(=O)Nc1cccc(-c2nn3ccccc3c2-c2ccnc(Nc3cccc(F)c3)n2)c1` [UNC10225310A], the inhibition at 1 µM on ITK was 93.8%; at CSF1R-autoinhibited it was 4%; on ADCK4 it was 0%; at LTK it was 13%; at DYRK1A, 0%; on ERK1 it was 1%. Moreover, the inhibition at 1 µM at CASK stood at 15%.

Take `O=c1cc(N2CCOCC2)nc2n(Cc3cccc(Cl)c3Cl)c(C3CC3)nn12` [UNC10225469A]: the inhibition at 1 µM at ITK was determined as 4%; at CSF1R-autoinhibited it was 0%; on ADCK4, 0%; on LTK it was 0%; on DYRK1A, 2%; at ERK1, 0%. In addition, on CASK, the inhibition at 1 µM amounted to 26%.

In the case of `Cn1cc(-c2cnc(N)c3c(-c4ccc5c(c4)CCN5C(=O)Cc4ccccc4)csc23)cn1` [UNC10225012A], the inhibition at 1 µM on ITK is 23%; on CSF1R-autoinhibited, 39%; on ADCK4, 0%; at LTK it was 0%; at DYRK1A, 0%; on ERK1, 0%. The inhibition at 1 µM on CASK came to 23%.

With `CS(=O)(=O)Cc1ccc(Nc2nccc(-c3c(-c4cccc(NC(=O)C5CCCCC5)c4)nn4ncccc34)n2)cc1` [UNC10225159A], the inhibition at 1 µM at ITK came out at 6%; on CSF1R-autoinhibited it was 35%; on ADCK4 it was 0%; on LTK, 0%; at DYRK1A it was 26%; at ERK1, 2%. In addition, the inhibition at 1 µM at CASK amounted to 34%.

Take `Cc1ccc(NC(=O)Nc2cccc(C(F)(F)F)c2)cc1` [UNC10225187A]: the inhibition at 1 µM came to 12% at ITK; 0% at CSF1R-autoinhibited; 0% on ADCK4; 0% on LTK; 0% at DYRK1A; 0% at ERK1. Also, the inhibition at 1 µM at CASK stood at 15%.
